Experimental data taken from patent US20080026996A1, “Selective Vpac2 Receptor Reptide Agonists” (ELI LILLY AND COMPANY, priority 2004, published 2008).
Where no end group is shown, it is not given here. [ ]: non-standard residue; d: D form. The star is where a group is joined. Orn = NCCC[C@H](N)C(=O)O; Hexanoyl = CCCCCC(=O)*; Aib = CC(C)(N)C(=O)O

What was measured:
[1] = target: T1, human VPAC2 (Homo sapiens, UniProt P41587); assay: Alpha screen cAMP in vitro potency, human VPAC2 receptor; type: cell-based; conditions: cAMP generation; single result from two analyses performed in a single run; read-out: Human VPAC2 Receptor: Alpha Screen EC50
T1 construct: expressed in transfected cells
T1 sequence (P41587 24-438): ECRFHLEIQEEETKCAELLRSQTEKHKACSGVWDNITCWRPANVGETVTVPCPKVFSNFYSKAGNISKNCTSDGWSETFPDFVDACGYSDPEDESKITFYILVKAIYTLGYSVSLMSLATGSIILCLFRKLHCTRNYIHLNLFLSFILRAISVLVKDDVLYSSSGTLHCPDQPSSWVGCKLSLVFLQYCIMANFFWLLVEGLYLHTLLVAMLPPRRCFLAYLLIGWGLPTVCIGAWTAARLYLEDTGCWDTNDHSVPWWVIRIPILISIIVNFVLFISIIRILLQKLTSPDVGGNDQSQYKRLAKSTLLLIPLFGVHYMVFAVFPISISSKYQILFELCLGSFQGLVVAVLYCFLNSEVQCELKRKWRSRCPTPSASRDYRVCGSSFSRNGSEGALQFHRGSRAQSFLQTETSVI
In short: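 This followed a 60 min stimulation of 50,000 enzyme-free-dissociated cells per point with acceptor beads in stimulation buffer.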

[2] = target: T1, human VPAC2; assay: Filter binding assay, membranes of stable VPAC2 cell line, 125I-labeled VIP tracer (Table 2); conditions: read-out: Human VPAC2 Receptor Binding
In short: (§1)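 Radioligand displacement was measured with 2.5 μg membrane protein per well and roughly 40000 cpm of iodinated tracer. After a 1-hour incubation, bound and free label were separated on BSA-blocked glass-fibre filters and quantified by scintillation.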

[3] = Rat serum stability studies (remaining active peptide by DiscoveRx cAMP on CHO-VPAC2 cells); type: in vitro ADME
In short: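 EC50 from a DiscoveRx cAMP read-out on CHO-VPAC2 cells indexes how much peptide stays active after 18 h in rat serum at 37° C without aprotinin, against an aprotinin-protected 4° C aliquot.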

[4] = target: T2, human VPAC1 (Homo sapiens, UniProt P32241); assay: Filter binding assay, membranes of cells transiently transfected with human VPAC1, 125I-labeled VIP tracer (Table 2); design: expressed in transfected cells; conditions: read-out: Human VPAC1 Receptor Binding
T2 sequence (P32241 31-457): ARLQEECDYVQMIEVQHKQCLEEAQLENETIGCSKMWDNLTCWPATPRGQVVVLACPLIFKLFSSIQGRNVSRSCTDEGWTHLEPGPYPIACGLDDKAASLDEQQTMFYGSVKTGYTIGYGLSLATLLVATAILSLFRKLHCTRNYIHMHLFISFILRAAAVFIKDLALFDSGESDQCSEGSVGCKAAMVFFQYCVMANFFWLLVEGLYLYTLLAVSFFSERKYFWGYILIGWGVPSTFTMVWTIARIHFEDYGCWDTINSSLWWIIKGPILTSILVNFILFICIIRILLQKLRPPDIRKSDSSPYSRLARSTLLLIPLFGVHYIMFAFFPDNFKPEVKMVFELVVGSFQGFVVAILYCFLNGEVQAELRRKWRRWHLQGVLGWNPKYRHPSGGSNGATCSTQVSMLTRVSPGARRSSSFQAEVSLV
In short: as §1

[5] = target: T3, human PAC1 (Homo sapiens, UniProt P41586); assay: Filter binding assay, membranes of cells transiently transfected with human PAC1, 125I-labeled PACAP-27 tracer (Table 2); design: expressed in transfected cells; conditions: read-out: Human PAC1 Receptor Binding
T3 sequence (P41586 21-468): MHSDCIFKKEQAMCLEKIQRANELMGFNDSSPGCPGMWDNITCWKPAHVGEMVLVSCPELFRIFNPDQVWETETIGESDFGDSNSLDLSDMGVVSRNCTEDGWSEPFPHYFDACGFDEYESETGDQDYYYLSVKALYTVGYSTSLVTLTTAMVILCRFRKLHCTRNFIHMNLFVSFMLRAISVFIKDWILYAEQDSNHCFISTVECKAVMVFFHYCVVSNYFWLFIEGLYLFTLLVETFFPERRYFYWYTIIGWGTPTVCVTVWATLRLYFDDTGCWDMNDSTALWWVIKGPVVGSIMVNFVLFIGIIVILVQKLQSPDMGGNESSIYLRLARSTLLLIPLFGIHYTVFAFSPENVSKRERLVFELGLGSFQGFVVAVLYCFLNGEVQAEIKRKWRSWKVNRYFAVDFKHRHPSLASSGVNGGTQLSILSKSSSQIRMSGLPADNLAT
In short: as §1

| Substance | EC50 [1] [nM] | IC50 [2] [nM] | Rat Serum Stability (estimated purity in % after 18 hours) [3] [%] | IC50 [4] [nM] | IC50 [5] [nM] | Rat Serum Stability (Estimated purity in % after 72 hours) [3] [%] |
| --- | --- | --- | --- | --- | --- | --- |
| Hexanoyl-HSDAVFTDNYTRLRKQVAAKKYFQSIKNKRYGGPSSGAPPPS [Agonist P231] | 0.26 | 0.55 | 0.57 | 458 | 300 |  |
| Hexanoyl-HSDAVFTDNYTRLRKQVAAKKYIQSIKNKRYGGPSSGAPPPS [Agonist P233] | 0.11 | 0.31 | 1.27 | 323 | 320 |  |
| Hexanoyl-HSDAVFTDNYTRLRKQVAAKKYLQSFKNKRYGGPSSGAPPPS [Agonist P106] | 0.16 | 0.22 | 0.11 | 118 | 1820 |  |
| Hexanoyl-HSDAVFTDNYTRLRKQVAAKKYVQSIKNKRYGGPSSGAPPPS [Agonist P234] | 0.16 | 0.33 | 0.69 | 641 | 248 |  |
| Hexanoyl-HSDAVFTDNYTRLRKQVAAKKYWQSIKNKRYGGPSSGAPPPS [Agonist P230] | 0.3 | 0.75 | 0.53 | 661 | 463 |  |
| Hexanoyl-HSDAVFTDNYTRLRKQVAAKKY[Aib]QSIKNKRYGGPSSGAPPPS [Agonist P236] | 0.12 | 0.37 | 0.79 | 589 | 225 |  |
| Hexanoyl-HSDAVFTDNYTRLRKQVAAKQYLQSIKNKRYGGPSSGAPPPS [Agonist P183] | 0.14 | 0.26 | 0.18 | 424 | 506 |  |
| Hexanoyl-HSDAVFTDNYTRLRKQVAAKRYLQSIKNKRYGGPSSGAPPPS [Agonist P182] | 0.29 | 0.17 | 0.15 | 205 | 429 |  |
| Hexanoyl-HSDAVFTDNYTRLRKQVAALKYLQSIKNKRYGGPSSGAPPPS [Agonist P151] | 0.07 | 0.72 | 0.35 | 204 | 720 |  |
| Hexanoyl-HSDAVFTDNYTRLRKQVAATKYLQSIKNKRYGGPSSGAPPPS [Agonist P152] | 0.17 | 0.37 | 0.06 | 514 | 672 |  |
| Hexanoyl-HSDAVFTDNYTRLRKQVAAVKYLQSIKNKRYGGPSSGAPPPS [Agonist P146] | 0.17 | 0.52 | 0.53 | 401 | 1540 |  |
| Hexanoyl-HSDAVFTDNYTRLRKQVAAWKYLQSIKNKRYGGPSSGAPPPS [Agonist P153] | 0.11 | 0.7 | <0.16 | 181 | 1130 |  |
| Hexanoyl-HSDAVFTDNYTRLRKQVAAYKYLQSIKNKRYGGPSSGAPPPS [Agonist P147] | 0.13 | 0.24 | 0.07 | 107 | 464 |  |
| Hexanoyl-HSDAVFTDNYTRLRKQVALKKYLQSIKNKRYGGPSSGAPPPS [Agonist P155] | 0.24 | 0.71 | 0.25 | 231 | 148 |  |
| Hexanoyl-HSDAVFTDNYTRLRRQVAAKKYLQSIKNKRYGGPSSGAPPPS [Agonist P176] | 0.28 | 6.88 | <0.14 | 93 | 227 |  |
| Hexanoyl-HSDAVFTDNYTRLR[Aib]QVAAAKYLQSIKNKRYGGPSSGAPPPS [Agonist P263] | 0.07 | 0.38 | 11.72 | 2680 | 636 |  |
| Hexanoyl-HSDAVFTDNYTRLR[Aib]QVAALKYLQSIKNKRYGGPSSGAPPPS [Agonist P265] | 0.21 | 0.68 | 8.70 | > 3000 | > 25000 |  |
| Hexanoyl-HSDAVFTDNYTRLR[Aib]QVAAVKYLQSIKNKRYGGPSSGAPPPS [Agonist P262] | 0.24 | 0.61 | 10.14 | > 3000 | > 25000 |  |
| Hexanoyl-HSDAVFTDNYTRLR[Orn]QVAAKKYLQSIKNKRYGGPSSGAPPPS [Agonist P307] | 0.32 | 0.28 | 0.32 | 274 | 293 |  |
| Hexanoyl-HSDAVFTDNYTRL[Aib]KQLAA[Aib]KYLQSIKNKRYGGPSSGAPPPS [Agonist P240] | 0.51 | 6.08 | 43.87 | > 3000 | > 25000 | 10.4 |
| Hexanoyl-HSDAVFTDNYTRL[Aib]KQVAAKKYLQSIKNKRYGGPSSGAPPPS [Agonist P167] | 0.17 | 1.14 | 14.98 | 1150 | 1010 |  |
| Hexanoyl-HSDAVFTDNYTRL[Aib]KQVAAQKYLQSIKNKRYGGPSSGAPPPS [Agonist P243] | 0.28 | 5.51 | 12.12 | > 3000 | > 25000 |  |
